From US20190166840A1, “SUBSTITUTED PYRAZOLINYL DERIVATIVES, PROCESSES FOR THEIR PREPARATION AND THEIR USE AS HERBICIDES AND/OR PLANT GROWTH REGULATORS” (BAYER CROPSCIENCE AKTIENGESELLSCHAFT, priority 2016, published 2019)

Legend:
Type in all cases: in vivo
Settings in all cases: application rate 1280 g/ha, scored visually after about 3 weeks
[1] = tested on: Polygonum convolvulus (=Fallopia convolvulus); experiment: Pre-emergence herbicidal action, POLCO
From the text: (§1) Pre-Emergence Herbicidal Action Seeds of mono- and dicotyledonous weed plants or crop plants were placed in sandy loam in wood fibre pots and covered with soil. The formulated compounds of the general formula (I) according to the invention were then applied to the surface of the covering soil in the form of an aqueous suspension or emulsion at an application rate of 600 l of water/ha (converted) with addition of 0.2% wetting agent. After the treatment, the pots were placed in a greenhouse and kept under good growth conditions for the test plants. After about 3 weeks, the effect was scored visually in percent in comparison to untreated controls. For example, 100% activity=the plants have died, 50% herbicidal activity or damage=plants reduced to 50% or plant material reduced by 50%, 0% activity=like control plants. Here, in the biological tests, the compounds of the general formula (I) according to the invention were in each case employed in a formulation, with the numerations of Tables I.1 to I.77 also applying here. Here, the herbicidal action of the compounds of the general formula (I) according to the invention was examined for the following harmful plants: POLCO=Polygonum convolvulus (=Fallopia convolvulus) The respective herbicidal action was in each case determined at the same point in time after application of the formulation in question, i.e. damage of the harmful plant in question in %. Pre-emergence herbicidal action of the compounds of the general formula (I) according to the invention: […]

Amaranthus retroflexus = experiment: Pre-emergence herbicidal action, AMARE
From the text: as §1, with “AMARE=Amaranthus retroflexus” for “POLCO=Polygonum convolvulus (=Fallopia convolvulus)”

Alopecurus myosuroides = experiment: Pre-emergence herbicidal action, ALOMY
From the text: as §1, with “ALOMY=Alopecurus myosuroides” for “POLCO=Polygonum convolvulus (=Fallopia convolvulus)”

Stellaria media = experiment: Pre-emergence herbicidal action, STEME
From the text: as §1, with “STEME=Stellaria media” for “POLCO=Polygonum convolvulus (=Fallopia convolvulus)”

Ipomoea purpurea = experiment: Pre-emergence herbicidal action, PHBPU
From the text: as §1, with “PHBPU=Ipomoea purpurea” for “POLCO=Polygonum convolvulus (=Fallopia convolvulus)”

Row | SMILES | Pre-emergence herbicidal action POLCO, damage of the harmful plant [1] | Pre-emergence herbicidal action AMARE, damage of the harmful plant (Amaranthus retroflexus) | Pre-emergence herbicidal action ALOMY, damage of the harmful plant (Alopecurus myosuroides) | Pre-emergence herbicidal action STEME, damage of the harmful plant (Stellaria media) | Pre-emergence herbicidal action PHBPU, damage of the harmful plant (Ipomoea purpurea)
1 | CC1=C(C)C(O)N(C2=NN(c3ccccn3)C(C)(C)C2)C1=O (stereo not drawn) [I.2-132] | 40% | 60% | 70% | 100% | 0%
2 | CC1=C(C)C(O)N(C2=NN(c3ccccc3)C(C(F)(F)F)C2)C1=O (stereo not drawn) [I.2-1413] | 100% | 60% | 70% | 100% | 0%
3 | CCC(=O)OC1C(C)=C(C)C(=O)N1C1=NN(c2ccccn2)C(C)(C)C1 (stereo not drawn) [I.23-132] | 0% | 70% | 60% | 100% | 30%
4 | CCC(=O)OC1C(C)=C(C)C(=O)N1C1=NN(c2ccccc2)CC1 (stereo not drawn) [I.23-621] | 100% | 40% | 0% | 0% | 0%
5 | CCC(=O)OC1C(C)=C(C)C(=O)N1C1=NN(c2ccccc2)C(C(F)(F)F)C1 (stereo not drawn) [I.23-1413] | 80% | 50% | 0% | 80% | 0%
6 | CCC(=O)OC1C(C)=C(Cl)C(=O)N1C1=NN(C)C(c2ccccc2)C1 (stereo not drawn) [I.24-1126] | 0% | 0% | 10% | 20% | 100%
